Source: US20250135022A1, “METHODS FOR THE USE OF A B7-H3 ANTIBODY-DRUG CONJUGATE IN COMBINATION WITH A PD-1 X CTLA-4 BISPECIFIC MOLECULE” (MACROGENICS, INC., priority 2022, published 2025)

Tests used:
[1] = system: Calu-6 lung cancer cells; experiment: Anti-tumor activity against subcutaneously implanted Calu-6 xenograft in SCID CES1c-KO mouse model; format: in vivo, SCID CES1c-KO mice; set-up: key to Anti-Tumor Activity: Highly Active: A T/C<10% is considered highly active; Active: a T/C≤42% is the minimum level of anti-tumor activity; Inactive: a T/C value of >42% is inactive
Experimental: In brief, ˜5×10^6 tumor cells (suspended in 1:1 media and MATRIGEL®) were subcutaneously implanted into the flank of female SCID CES1c-KO mice (Charles River Laboratories). When tumors had reached a volume of approximately 50-180 mm^3 (average 105 mm^3) on day 16, the mice were randomized and MGC018 or control vehicle were administered intravenously. In these studies, mice were administered either a single dose (1 mg/kg or 3 mg/kg, QW×1) of MGC018 or a fractionated dose of MGC018 (0.3 mg/kg or 1 mg/kg) once a week for 4 weeks (QW×4W). Vehicle was administered as a control on day 16. Tumors were measured twice weekly by orthogonal measurements with electronic calipers, with tumor volumes calculated as: (length×width×height)/2. The tumor volume (relative to control) was determined (“T/C”). A finding that the tumor volume of treated animals had decreased to ≤5 mm^3 during the study period was considered to denote a Complete Regression (“CR”) and a Partial Regression (“PR”) was defined when tumors were reduced by 50% or greater from day of dosing at any point during the study.

[2] = system: A375.S2 melanoma cells; experiment: Anti-tumor activity against subcutaneously implanted A375.S2 xenograft in SCID CES1c-KO mouse model; format: in vivo, SCID CES1c-KO mice
Experimental: In brief, ˜5×10^6 A375.S2 tumor cells (suspended in 1:1 media and MATRIGEL®) were subcutaneously implanted into the flank of female SCID CES1c-KO mice (Charles River Laboratories). When tumors had reached a volume of approximately 70-255 mm^3 (average 124 mm^3) on day 22, the mice were randomized and MGC018 or control vehicle were administered intravenously. In these studies, mice were administered either a single dose (1 mg/kg or 3 mg/kg, QW×1) of MGC018 or a fractionated dose of MGC018 (0.3 mg/kg or 1 mg/kg) once a week for 4 weeks (QW×4W). Vehicle was administered as a control on day 22. Tumors were measured twice weekly by orthogonal measurements with electronic calipers, with tumor volumes calculated as: (length×width×height)/2. The tumor volume (relative to control) was determined (“T/C”). A finding that the tumor volume of treated animals had decreased to ≤5 mm^3 during the study period was considered to denote a Complete Regression (“CR”) and a Partial Regression (“PR”) was defined when tumors were reduced by 50% or greater from day of dosing at any point during the study.

[3] = system: Calu-6 lung cancer cells; experiment: Anti-tumor activity against subcutaneously implanted Calu-6 xenograft in CD-1 Nude mouse model; format: in vivo, CD-1 Nude mice; set-up: key to Anti-Tumor Activity: Highly Active: A T/C<10% is considered highly active; Active: a T/C≤42% is the minimum level of anti-tumor activity; Inactive: a T/C value of >42% is inactive
Experimental: In brief, ˜5×10^6 tumor cells (suspended in 1:1 media and MATRIGEL®) were subcutaneously implanted into the flank of female CD-1 Nude mice (homozygous; Charles River Laboratories). When tumors had reached a volume of approximately 100-235 mm3 (average 172 mm^3) on day 21, the mice were randomized and MGC018 or control vehicle were administered intravenously. In these studies, mice were administered either a single dose (12 mg/kg, QW×1) of MGC018 or a fractionated dose of MGC018 (0.3 mg/kg, 1 mg/kg, or 3 mg/kg) once a week for 4 weeks (QW×4W). Vehicle was administered as a control on day 21. Tumors were measured twice weekly by orthogonal measurements with electronic calipers, with tumor volumes calculated as: (length×width×height)/2. The tumor volume (relative to control) was determined (“T/C”). A finding that the tumor volume of treated animals had decreased to ≤5 mm^3 during the study period was considered to denote a Complete Regression (“CR”) and a Partial Regression (“PR”) was defined when tumors were reduced by 50% or greater from day of dosing at any point during the study.

[4] = 0.3 mg/kg, QW × 4W, intravenous
[5] = fractionated 0.3 and 1 mg/kg QW×4W vs single 1 or 3 mg/kg QW×1

## MGC018: B7-H3-ADC: Light and Heavy Chain of anti-B7-H3 hmAb-A (SEQ ID NO:19, 20) conjugated via maleimide, valine-citrulline, para-aminobenzyloxycarbonyl linker to seco-DUBA payload
[1]; [4]
  % T/C at Day 50: 61%
  Anti-Tumor Activity: Inactive
  CR (complete regression): 0/6
  PR (partial regression): 0/6
[1]; 1 mg/kg, QW × 1, intravenous
  % T/C at Day 50: 49%
  Anti-Tumor Activity: Inactive
  CR (complete regression): 0/6
  PR (partial regression): 0/6
[1]; 1 mg/kg, QW × 4W, intravenous
  % T/C at Day 50: 17%
  Anti-Tumor Activity: Active
  CR (complete regression): 0/6
  PR (partial regression): 0/6
[1]; 3 mg/kg, QW × 1, intravenous
  % T/C at Day 50: 25%
  Anti-Tumor Activity: Active
  CR (complete regression): 0/6
  PR (partial regression): 0/6
[1]; [5]
  anti-tumor activity of fractionated dose compared with single dose: near equivalent anti-tumor activity
[2]; [4]
  % T/C at Day 53: 6%
  CR (complete regression): 0/7
  PR (partial regression): 4/7
[2]; 1 mg/kg, QW × 1, intravenous
  % T/C at Day 53: 5%
  CR (complete regression): 0/7
  PR (partial regression): 7/7
[2]; 1 mg/kg, QW × 4W, intravenous
  % T/C at Day 53: 1%
  CR (complete regression): 6/7
  PR (partial regression): 7/7
[2]; 3 mg/kg, QW × 1, intravenous
  % T/C at Day 53: 1%
  CR (complete regression): 7/7
  PR (partial regression): 7/7
[2]; [5]
  anti-tumor activity of fractionated dose compared with single dose: near equivalent anti-tumor activity
[3]; [4]
  % T/C at Day 44: 78%
  Anti-Tumor Activity: Active
  CR (complete regression): 0/7
  PR (partial regression): 0/7
[3]; 1 mg/kg, QW × 4W, intravenous
  % T/C at Day 44: 30%
  Anti-Tumor Activity: Active
  CR (complete regression): 0/7
  PR (partial regression): 0/7
[3]; 3 mg/kg, QW × 4W, intravenous
  % T/C at Day 44: 17%
  Anti-Tumor Activity: Active
  CR (complete regression): 0/7
  PR (partial regression): 2/7
[3]; 12 mg/kg, QW × 1, intravenous
  % T/C at Day 44: 6%
  CR (complete regression): 0/7
  PR (partial regression): 2/7
[3]; fractionated 0.3, 1 and 3 mg/kg QW×4W vs single 12 mg/kg QW×1
  anti-tumor activity of fractionated dose compared with single dose: near equivalent anti-tumor activity
